SMILES strings stand for the structures.

Molecule `*C(=O)Nc1ccc(C(c2ccc(NC(=O)c3ccc4c(c3)C(=O)N(c3c(C)cc(-c5cc(C)c(N6C(=O)c7ccc(*)cc7C6=O)c6ccccc56)c5ccccc35)C4=O)cc2)(C(F)(F)F)C(F)(F)F)cc1` (repeat unit) came in with a glass transition temperature of 250.00 °C.

For the molecule `*C(=O)Oc1ccc(C(=O)Oc2cccc(OC(=O)c3ccc(OC(=O)c4ccc(*)nc4)cc3)c2)cc1` (repeat unit), the glass transition temperature was 110.00 °C. Regarding `*C(=O)Oc1ccc2ccc(OC(=O)c3ccc4c(c3)C(=O)N(c3ccc(Oc5ccc(N6C(=O)c7ccc(*)cc7C6=O)cc5)cc3)C4=O)cc2c1` (repeat unit), the glass transition temperature was determined as 246.00 °C. In turn, `*C(=O)c1ccc2c(c1)C(=O)N(c1ccc(-c3ccc(N4C(=O)c5ccc(*)cc5C4=O)cc3)cc1)C2=O` (repeat unit) yielded a glass transition temperature of 382.00 °C. The molecule `*CCN(Cc1ccccc1)C(=O)S*` (repeat unit) had a glass transition temperature of 32.00 °C. Consider `*O[Si](c1ccccc1)(c1ccccc1)c1cccc(*)c1` (repeat unit), for which the glass transition temperature was 62.00 °C. As to `*Oc1ccc(Oc2cccc(*)n2)c(-c2ccccc2)c1` (repeat unit), the glass transition temperature amounted to 115.00 °C. For `*Oc1ccc(Oc2cccc(*)n2)c(C)c1` (repeat unit), the glass transition temperature was 89.00 °C. In the case of `*Oc1ccc(SC(=O)Sc2ccc(*)cc2)cc1` (repeat unit), the glass transition temperature stood at 117.00 °C. `*Oc1ccc(SSc2ccc(*)cc2)cc1` (repeat unit): the glass transition temperature came out at 76.80 °C. `*Oc1cccc(C(*)=O)c1` (repeat unit): the glass transition temperature came to 162.00 °C. Under `*Oc1cccc(OC(=O)c2ccc(Oc3ccc(C(*)=O)cc3)cc2)c1` (repeat unit) stands 159.00 °C. Take `*Oc1cccc(OC(=O)c2cccc(C(*)=O)c2)c1` (repeat unit): the glass transition temperature was 147.00 °C. `*Oc1cccc(Oc2ccc3c(=O)n4c5cc(-c6ccc7c(c6)nc6c8ccc(*)c9cccc(c(=O)n76)c98)ccc5nc4c4cccc2c34)c1` (repeat unit) registered a glass transition temperature of 396.50 °C. Regarding `*Oc1cccc(Oc2cccc(*)c2)c1C#N` (repeat unit), the glass transition temperature is 145.00 °C. Regarding `*Oc1cccc(Oc2cccc(NC(=O)c3cc(Oc4ccc(C(=O)O)c(C(=O)Nc5cccc(*)c5)c4)ccc3C(=O)O)c2)c1C#N` (repeat unit), the glass transition temperature was found to be 200.10 °C. Turning to `*Oc1cccc(Oc2cccc(OC(*)=O)c2)c1` (repeat unit), the glass transition temperature turned out to be 71.00 °C.

Regarding `*Oc1ccccc1C(=O)OC(=O)c1ccccc1OC(=O)c1cccc(C(*)=O)c1` (repeat unit), the glass transition temperature amounted to 105.00 °C. As to `*SC1CCCC(*)C1` (repeat unit), the glass transition temperature was -52.00 °C.

In the case of `*SC1CCCCC1*` (repeat unit), the glass transition temperature was -43.00 °C. Under `*Sc1cc(C)c(*)cc1C` (repeat unit) stands 298.00 °C. In the case of `*Sc1ccc(Nc2ccc(*)cc2)cc1` (repeat unit), the glass transition temperature was found to be 145.00 °C. Turning to `*Sc1ccc(Sc2ccc(Sc3ccc4c(c3)C(=O)N(N3C(=O)c5cccc(*)c5C3=O)C4=O)cc2)cc1` (repeat unit), the glass transition temperature was 242.00 °C. The same measure for `*Sc1cccc(Sc2ccc(Sc3ccc(*)cc3)cc2)c1` (repeat unit): 69.00 °C; for `*[Se]c1c(Cl)c(Cl)c(*)c(Cl)c1Cl` (repeat unit): 104.00 °C.

As for `*[Si](*)(C)CCC(F)(F)F` (repeat unit), the glass transition temperature is -3.00 °C.

`*[Si](*)(CCCC)CCCCCC` (repeat unit) gave a glass transition temperature of -40.00 °C. Turning to `*[Si](*)(CCCCCC)c1ccccc1` (repeat unit), the glass transition temperature is -70.00 °C. With `*c1ccc(-c2ccc(-c3nc4cc(Oc5ccc6nc(-c7ccccc7)c(*)nc6c5)ccc4nc3-c3ccccc3)cc2)cc1` (repeat unit), the glass transition temperature is 410.00 °C. The same measure for `*c1ccc(-c2ccc(-c3nc4ccc(Oc5ccc6nc(*)c(-c7ccccc7)c(-c7ccccc7)c6c5)cc4c(-c4ccccc4)c3-c3ccccc3)cc2)cc1` (repeat unit): 351.00 °C.

For the molecule `*c1ccc(-c2nc3cc(Oc4ccc5nc(-c6ccccc6)c(*)nc5c4)ccc3nc2-c2ccccc2)cc1` (repeat unit), the glass transition temperature was 304.00 °C.

The molecule `*c1ccc(Cc2ccc(N3C(=O)c4ccc(Sc5ccc6c(c5)C(=O)N(*)C6=O)cc4C3=O)cc2)cc1` (repeat unit) registered a glass transition temperature of 265.00 °C. Molecule `*c1ccc(Oc2ccc(-c3ccc(Oc4ccc(N5C(=O)c6ccc(Oc7ccccc7Oc7ccc8c(c7)C(=O)N(*)C8=O)cc6C5=O)cc4)cc3)cc2)cc1` (repeat unit) had a glass transition temperature of 204.00 °C.

`*c1ccc(Oc2ccc(-c3ccc(Oc4ccc(N5C(=O)c6cccc(Oc7c(Oc8cccc9c8C(=O)N(*)C9=O)cc(C(C)(C)C)cc7C(C)(C)C)c6C5=O)cc4)cc3)cc2)cc1` (repeat unit) displayed a glass transition temperature of 237.00 °C. As to `*c1ccc(Oc2ccc(-c3nc4ccc(Oc5ccc6nc(*)c(-c7ccccc7)c(-c7ccccc7)c6c5)cc4c(-c4ccccc4)c3-c3ccccc3)cc2)cc1` (repeat unit), the glass transition temperature turned out to be 305.00 °C. Take `*c1ccc(Oc2ccc(C(c3ccc(Oc4ccc(N5C(=O)c6ccc(Oc7ccccc7Oc7ccc8c(c7)C(=O)N(*)C8=O)cc6C5=O)cc4C(F)(F)F)cc3)(C(F)(F)F)C(F)(F)F)cc2)c(C(F)(F)F)c1` (repeat unit): the glass transition temperature turned out to be 191.00 °C. Regarding `*c1ccc(Oc2ccc(N3C(=O)c4ccc(Sc5ccc6c(c5)C(=O)N(*)C6=O)cc4C3=O)cc2)cc1` (repeat unit), the glass transition temperature is 258.00 °C.

Regarding `*c1ccc(Oc2ccc(N3C(=O)c4cccc(Oc5c(Oc6cccc7c6C(=O)N(*)C7=O)cc(C(C)(C)C)cc5C(C)(C)C)c4C3=O)cc2)cc1` (repeat unit), the glass transition temperature amounted to 238.00 °C.

`*c1ccc(Oc2ccc(Oc3ccc(N4C(=O)c5ccc(Oc6ccccc6Oc6ccc7c(c6)C(=O)N(*)C7=O)cc5C4=O)cc3C(F)(F)F)cc2)c(C(F)(F)F)c1` (repeat unit) gave a glass transition temperature of 197.00 °C. The molecule `*c1ccc(Oc2cccc(N3C(=O)c4ccc(Oc5cccc6c(Oc7ccc8c(c7)C(=O)N(*)C8=O)cccc56)cc4C3=O)c2)cc1` (repeat unit) gave a glass transition temperature of 235.00 °C. `*c1ccc(Oc2ccccc2Oc2ccc(N3C(=O)c4ccc(Oc5ccccc5Oc5ccc6c(c5)C(=O)N(*)C6=O)cc4C3=O)cc2)cc1` (repeat unit) had a glass transition temperature of 193.00 °C.

`*c1ccc(Sc2ccc(Sc3ccc(N4C(=O)c5ccc(Sc6ccc(Sc7ccc(Sc8ccc9c(c8)C(=O)N(*)C9=O)cc7)cc6)cc5C4=O)cc3)cc2)cc1` (repeat unit): the glass transition temperature came to 190.8 °C.

`*c1ccc2c(c1)C(=O)N(c1c(C)c(C)c(N3C(=O)c4ccc(C(*)(C(F)(F)F)C(F)(F)F)cc4C3=O)c(C)c1C)C2=O` (repeat unit) displayed a glass transition temperature of 420.00 °C. Regarding `*c1cccc(N2C(=O)c3ccc(Oc4ccccc4Oc4ccc5c(c4)C(=O)N(*)C5=O)cc3C2=O)c1` (repeat unit), the glass transition temperature came out at 224.00 °C.
